The values that follow come from ChEMBL document CHEMBL5038581, “Design, synthesis, and biological evaluation of novel dual inhibitors targeting lysine specific demethylase 1 (LSD1) and histone deacetylases (HDAC) for treatment of gastric cancer” (Eur J Med Chem, 2021).

Assay [1] addresses T1, Protein deacetylase HDAC6 (Homo sapiens, UniProt Q9UBN7).
T1 sequence (Q9UBN7 whole entry): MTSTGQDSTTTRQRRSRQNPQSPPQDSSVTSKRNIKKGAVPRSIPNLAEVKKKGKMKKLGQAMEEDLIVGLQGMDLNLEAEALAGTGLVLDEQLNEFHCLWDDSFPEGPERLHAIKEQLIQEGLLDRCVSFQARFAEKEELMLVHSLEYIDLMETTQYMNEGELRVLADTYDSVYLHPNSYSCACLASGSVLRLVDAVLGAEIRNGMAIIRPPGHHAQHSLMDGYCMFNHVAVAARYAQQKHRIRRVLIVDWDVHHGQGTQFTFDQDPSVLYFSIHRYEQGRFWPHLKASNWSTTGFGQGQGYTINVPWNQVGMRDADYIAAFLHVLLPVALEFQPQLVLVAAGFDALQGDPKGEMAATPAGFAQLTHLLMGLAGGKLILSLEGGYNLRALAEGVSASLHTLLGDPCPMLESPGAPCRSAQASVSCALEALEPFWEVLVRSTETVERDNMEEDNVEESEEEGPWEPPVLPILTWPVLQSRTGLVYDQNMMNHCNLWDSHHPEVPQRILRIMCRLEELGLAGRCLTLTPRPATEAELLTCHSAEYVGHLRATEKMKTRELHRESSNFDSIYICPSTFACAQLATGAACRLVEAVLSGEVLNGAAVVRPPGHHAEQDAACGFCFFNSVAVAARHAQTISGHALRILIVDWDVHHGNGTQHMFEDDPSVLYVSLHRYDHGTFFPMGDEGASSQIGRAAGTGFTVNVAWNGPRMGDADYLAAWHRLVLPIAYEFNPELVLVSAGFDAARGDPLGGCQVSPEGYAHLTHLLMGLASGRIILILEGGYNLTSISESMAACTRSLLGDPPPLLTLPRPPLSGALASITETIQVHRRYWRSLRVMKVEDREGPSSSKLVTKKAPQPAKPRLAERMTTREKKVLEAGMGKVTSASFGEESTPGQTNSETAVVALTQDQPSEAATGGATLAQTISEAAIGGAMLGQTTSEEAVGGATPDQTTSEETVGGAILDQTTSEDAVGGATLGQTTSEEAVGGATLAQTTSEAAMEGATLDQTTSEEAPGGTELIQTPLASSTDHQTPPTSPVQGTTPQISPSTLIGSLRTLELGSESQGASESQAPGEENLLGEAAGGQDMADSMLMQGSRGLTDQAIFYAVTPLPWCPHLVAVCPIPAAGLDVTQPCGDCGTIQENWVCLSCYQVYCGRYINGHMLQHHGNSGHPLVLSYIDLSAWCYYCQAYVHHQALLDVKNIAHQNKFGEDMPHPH
As to the kind of experiment: Inhibition of HDAC6 (unknown origin) using Ac-peptide as substrate preincubated for 15 mins followed by substrate addition by fluorescence assay.

In assay [2] the test system is HCT-116. Briefly: cells. To be noted: Homo sapiens, HCT-116, 72 h.
Assay [3] deals with MGC-803. Briefly: cells. To be noted: Homo sapiens, MGC-803, 72 h.
Assay [4] addresses Histone deacetylase 5 (Homo sapiens, UniProt Q9UQL6). As to the kind of experiment: Inhibition of HDAC5 (unknown origin) using Ac-peptide as substrate preincubated for 15 mins followed by substrate addition by fluorescence assay.
Assay [5] has as its target T2, Lysine-specific histone demethylase 1A (Homo sapiens, UniProt O60341). Briefly: Inhibition of recombinant LSD1 (157 to 852 residues) (unknown origin) expressed in Escherichia coli BL21 (DE) using H3K4me2 as substrate by amplex red assay.
Assay [6] addresses Histone deacetylase 1 (Homo sapiens, UniProt Q13547). Briefly: Inhibition of HDAC1 (unknown origin) using Ac-peptide as substrate preincubated for 15 mins followed by substrate addition by fluorescence assay.
Assay [7] relates to MKN-1. As to the kind of experiment: cells. Conditions: Homo sapiens, MKN-1, 72 h.
For assay [8], the system named is SNU1. As to the kind of experiment: cells. Conditions: Homo sapiens, SNU1, 72 h.
Assay [9] has as its system BGC-823. Briefly: cells. Conditions: Homo sapiens, BGC-823, 72 h.
Assay [10] relates to AGS. As to the kind of experiment: cells. To be noted: Homo sapiens, 72 h.
Assay [11] relates to NCI-N87. As to the kind of experiment: cells. Conditions: Homo sapiens, NCI-N87, 72 h.
For assay [12], the system named is MKN-45. As to the kind of experiment: cells. To be noted: Homo sapiens, MKN-45, 72 h.
The target of assay [13] is T2, Lysine-specific histone demethylase 1A. As to the kind of experiment: Inhibition of recombinant LSD1 (157 to 852 residues) (unknown origin) expressed in Escherichia coli BL21 (DE) at 10 uM using H3K4me2 as substrate by amplex red assay relative to control.

pIC50: −log10 of the molar value. Where only a bound is given, the exact number is not on record here.

Sequence of Histone deacetylase 1 (Q13547 whole entry): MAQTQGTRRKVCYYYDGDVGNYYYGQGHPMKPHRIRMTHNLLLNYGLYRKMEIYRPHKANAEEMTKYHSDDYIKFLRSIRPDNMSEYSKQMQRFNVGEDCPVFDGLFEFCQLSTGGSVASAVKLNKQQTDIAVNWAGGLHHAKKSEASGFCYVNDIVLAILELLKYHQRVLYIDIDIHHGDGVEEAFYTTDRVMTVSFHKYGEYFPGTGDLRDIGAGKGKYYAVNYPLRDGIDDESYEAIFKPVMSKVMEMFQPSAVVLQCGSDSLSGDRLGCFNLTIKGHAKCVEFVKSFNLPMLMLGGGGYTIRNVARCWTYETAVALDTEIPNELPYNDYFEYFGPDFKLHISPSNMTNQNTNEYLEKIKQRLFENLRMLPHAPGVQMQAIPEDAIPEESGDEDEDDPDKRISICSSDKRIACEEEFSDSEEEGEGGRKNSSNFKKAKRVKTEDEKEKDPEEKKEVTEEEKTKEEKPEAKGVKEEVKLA
Sequence of Histone deacetylase 5 (Q9UQL6 whole entry, the tested form may be a part): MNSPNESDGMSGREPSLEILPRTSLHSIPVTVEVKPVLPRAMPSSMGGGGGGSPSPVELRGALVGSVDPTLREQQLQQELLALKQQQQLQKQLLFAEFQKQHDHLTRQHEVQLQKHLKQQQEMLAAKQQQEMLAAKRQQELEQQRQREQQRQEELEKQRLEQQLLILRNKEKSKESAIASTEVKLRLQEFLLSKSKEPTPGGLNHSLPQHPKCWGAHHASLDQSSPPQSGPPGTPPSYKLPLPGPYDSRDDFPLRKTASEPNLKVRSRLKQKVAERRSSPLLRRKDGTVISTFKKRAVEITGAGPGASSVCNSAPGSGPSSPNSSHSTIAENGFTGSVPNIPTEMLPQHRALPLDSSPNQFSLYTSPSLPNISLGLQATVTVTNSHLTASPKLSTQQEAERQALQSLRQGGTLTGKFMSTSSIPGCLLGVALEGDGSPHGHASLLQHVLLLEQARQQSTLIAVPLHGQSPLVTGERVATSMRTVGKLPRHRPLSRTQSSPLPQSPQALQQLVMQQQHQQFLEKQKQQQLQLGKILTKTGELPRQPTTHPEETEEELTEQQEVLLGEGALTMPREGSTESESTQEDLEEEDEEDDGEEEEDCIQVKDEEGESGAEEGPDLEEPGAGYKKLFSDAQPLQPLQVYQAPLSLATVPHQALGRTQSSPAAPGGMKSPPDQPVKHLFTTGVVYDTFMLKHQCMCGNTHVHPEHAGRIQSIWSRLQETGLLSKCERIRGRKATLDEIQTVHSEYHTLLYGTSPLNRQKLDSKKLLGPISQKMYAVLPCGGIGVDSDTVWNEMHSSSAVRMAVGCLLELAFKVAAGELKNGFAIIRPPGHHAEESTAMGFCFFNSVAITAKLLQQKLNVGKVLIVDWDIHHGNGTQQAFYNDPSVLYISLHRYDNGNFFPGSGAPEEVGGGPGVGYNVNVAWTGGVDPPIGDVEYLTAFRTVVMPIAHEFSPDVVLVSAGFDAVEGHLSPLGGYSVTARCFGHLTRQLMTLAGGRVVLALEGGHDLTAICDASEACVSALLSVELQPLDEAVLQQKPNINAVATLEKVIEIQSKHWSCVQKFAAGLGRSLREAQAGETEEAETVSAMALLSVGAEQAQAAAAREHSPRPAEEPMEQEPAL

What is called pIC50 is the negative decadic logarithm of the IC50, by convention in mol/L. On to `O=C(NO)c1ccc(/C=C/c2cccc(-c3cccc(O)c3)c2)cc1`, for which the pIC50 is 6.70 in assay [1]; below 5.00 in assay [2]; 5.05 in [3]; below 5.00 in assay [4]; 5.44 in assay [5]; 5.91 in [6].
Regarding `O=C(NO)c1ccc(/C=C/c2ccnc(-c3cc(F)ccc3O)c2)cc1`, the pIC50 in assay [1] was 6.89; in [2] it was 5.69; in [3], 5.72; in assay [4], 5.03; in assay [5], 5.66; in assay [6] it was 5.94.
On to `O=C(NO)c1ccc(/C=C/c2ccncc2)cc1`, for which the pIC50 was 6.89 in [1]; 5.41 in assay [2]; 5.41 in [3]; below 5.00 in [4]; 6.07 in assay [5]; 6.20 in assay [6].
For `C/C(=N\NC(=O)c1cccc(S(=O)(=O)N2CCOCC2)c1)c1cc(Cl)ccc1O`, the pIC50 in [7] is 5.05; in assay [8], 5.10; in [9], 5.09; in assay [10], 5.21; in [11] it was 4.98; in assay [12], 4.57.
Take `COc1ccccc1-c1cc(/C=C/c2ccc(C(=O)NO)cc2)ccn1`: the pIC50 is 7.55 in assay [1]; 5.07 in [2]; 5.20 in assay [3]; below 5.00 in assay [4]; 5.97 in assay [5]; 5.98 in assay [6].
Broadly, the inhibition is the share of the control response that was lost under treatment. Take `O=C(NO)c1ccc(/C=C/c2cncc(-c3ccc(C(F)(F)F)cc3)c2)cc1`: the pIC50 in assay [2] and in assay [3] was below 5.00 each time. Moreover, in [13], the inhibition is 5.6%.
`N[C@H]1CC[C@H](N[C@@H]2C[C@H]2c2ccccc2)CC1`: the pIC50 in assay [7], in assay [8], in assay [9], in assay [10], in assay [11] and in assay [12] was below 4.30 in each case.
As for `O=C(NO)c1ccc(/C=C/c2ccnc(-c3cccnc3)c2)cc1`, the pIC50 in assay [1] was 7.85; in assay [2], 5.29; in assay [3], 5.34; in assay [4] it was below 5.00; in [5] it was 5.86; in [6], 6.24.
Turning to `O=C(NO)c1ccc(/C=C/c2ccnc(Br)c2)cc1`, the pIC50 is 6.49 in [1]; below 5.00 in assay [2]; below 5.00 in [3]; below 5.00 in [4]; 5.99 in assay [5]; 5.44 in assay [6].
As for `O=C(/C=C/c1ccc(/C=C/c2ccnc(-c3ccccc3O)c2)cc1)NO`, the pIC50 was below 5.00 in assay [2], below 5.00 in [3] and 6.33 in assay [6]. Further, in assay [13], the inhibition was found to be 22.9%.
As for `COc1ccc(F)cc1-c1cncc(/C=C/c2ccc(C(=O)NO)cc2)c1`, the pIC50 was 7.03 in [1]; 5.47 in [2]; 5.47 in assay [3]; below 5.00 in assay [4]; 5.80 in [5]; 6.17 in assay [6].
Regarding `Cc1ccc(-c2cncc(/C=C/c3ccc(C(=O)NO)cc3)c2)cc1`, the values for the pIC50 in [2], in [3] and in assay [6] were below 5.00, below 5.00 and 4.36, respectively. Also, the inhibition in assay [13] is 29.8%.
In the case of `O=C(NO)c1ccc(/C=C/c2ccnc(-c3cccc(O)c3)c2)cc1`, the pIC50 in assay [1] is 7.72; in [2], 5.79; in [3], 5.68; in [4], below 5.00; in assay [5], 5.74; in assay [6] it was 6.54.
`O=C(NO)c1ccc(/C=C/c2cc(-c3ccc(C(F)(F)F)cc3)ncc2F)cc1`: the pIC50 in assay [2] is below 5.00; in assay [3], below 5.00; in assay [6], 5.53. Further, in assay [13], the inhibition came out at 5.6%.
As for `Cc1ccc(-c2cc(/C=C/c3ccc(C(=O)NO)cc3)ccn2)cc1`, the pIC50 in assay [1] was 6.82; in assay [2], 5.62; in assay [3], 5.72; in assay [4], below 5.00; in assay [5] it was 5.57; in assay [6] it was 6.02.
In the case of `Cc1ccc(-c2cncc(/C=C/c3ccc(C(=O)NO)cc3)c2)c(F)c1`, the pIC50 was 6.82 in [1]; 5.52 in assay [2]; 5.65 in assay [3]; below 5.00 in [4]; 5.51 in [5]; 5.97 in assay [6].
As for `O=C(NO)c1ccc(/C=C/c2ccnc(-c3ccc(F)cc3)c2)cc1`, the pIC50 in assay [2] and in [3] was below 5.00 each time. Also, the inhibition in assay [13] was found to be 21.2%.
`O=C(NO)c1ccc(/C=C/c2cccc(-c3ccccc3O)c2)cc1`: the pIC50 is 6.74 in assay [1]; 5.37 in [2]; 5.22 in assay [3]; below 5.00 in [4]; 5.71 in assay [5]; 6.03 in assay [6].
As to `O=C(NO)c1ccc(/C=C/c2ccnc(-c3ccc(C(F)(F)F)cc3)c2)cc1`, the pIC50 was below 5.00 in [2], below 5.00 in assay [3] and 5.32 in assay [6]. Also, the inhibition in [13] was 33%.
Consider `Cc1ccc(-c2cc(/C=C/c3ccc(C(=O)NO)cc3)c(F)cn2)cc1`, for which the pIC50 in assay [2] is below 5.00; in assay [3] it was below 5.00; in assay [6], 5.93. In addition, in assay [13], the inhibition amounted to 20.7%.
Consider `O=C(NO)c1ccc(/C=C/c2ccnc(-c3cccc(CO)c3)c2)cc1`, for which the pIC50 in assay [1] was 7.47; in assay [2], 5.77; in [3], 5.76; in assay [4], below 5.00; in [5] it was 5.94; in assay [6], 6.55.
For the compound `Cc1ccc(-c2cc(/C=C/c3ccc(C(=O)NO)cc3)c(F)cn2)c(F)c1`, the pIC50 was 5.78 in assay [2], 5.60 in [3] and 6.06 in [6]. Further, the inhibition in assay [13] came out at 55.2%.
For the compound `O=C(NO)c1ccc(/C=C/c2cccc(-c3cc(F)ccc3O)c2)cc1`, the pIC50 is 6.62 in assay [1]; below 5.00 in assay [2]; below 5.00 in assay [3]; below 5.00 in assay [4]; 5.45 in assay [5]; 5.67 in assay [6].
Take `COc1ccc(-c2cc(/C=C/c3ccc(C(=O)NO)cc3)ccn2)cc1`: the pIC50 in assay [1] is 6.96; in assay [2] it was 5.45; in [3], 5.45; in assay [4], below 5.00; in assay [5], 5.72; in assay [6] it was 6.16.
Regarding `O=C(NO)c1ccc(/C=C/c2cncc(-c3ccccc3O)c2)cc1`, the pIC50 in [1] is 7.89; in [2], 5.33; in assay [3], 5.26; in [4], below 5.00; in assay [5] it was 6.29; in assay [6], 5.47.
Take `O=C(NO)c1ccc(/C=C/c2ccnc(-c3ccsc3)c2)cc1`: the pIC50 was 7.27 in assay [1]; 5.72 in [2]; 5.43 in [3]; below 5.00 in assay [4]; 5.69 in assay [5]; 6.68 in assay [6].
